This is an account of results in publication PMC6751730 (ACS Omega, 2019).

The subject of test [1] is A549 cancer cells. The test can be described thus: MTT antiproliferative assay, A549. The test is classed as cell-based, human. The note with it: 24 h drug exposure. For orientation: Formazan colour is commonly taken as a measure of viable cells.
For test [2], the system named is HepG2 cancer cells. Put plainly: MTT antiproliferative assay, HepG2. The test is classed as cell-based. The note with it: 24 h drug exposure.
In test [3] the test system is BEAS-2B normal cells. The test can be described thus: MTT antiproliferative assay, normal cells BEAS-2B. The test is classed as cell-based. As to conditions: 24 h drug exposure.
For test [4], the system named is HeLa cancer cells. Put plainly: MTT antiproliferative assay, HeLa. The test is classed as cell-based, human. As to conditions: 24 h drug exposure.
Test [5] deals with lysosomes in A549 cells. The note with it: cited from earlier work.

Broadly, the IC50 is the concentration that gives 50% inhibition. The low end stands for greater potency in that assay, the high end for weaker potency in that assay. Consider `N.N.[Cl][Pt][Cl]` [cisplatin], for which the IC50 was found to be 21.3 ± 1.7 µM in test [1], 22.7 ± 1.1 µM in test [2], 42 ± 2.3 µM in test [3] and 7.5 ± 0.2 µM in test [4].
With `CCNc1cc2c(cc1C)C1(c3cc(C)c(NCC)cc3O2)c2ccccc2C(=O)N1N` [rhodamine 6G hydrazide], the “Colocalization coefficient with lysosome” value in test [5] is 0.58.
Take `CCN(CC)c1ccc2c(c1)Oc1cc(N(CC)CC)ccc1C21c2ccccc2C(=O)N1N` [rhodamine B hydrazide]: in test [5], the “Colocalization coefficient with lysosome” value is 0.62.
